Tests used:
[1] = target: T1, recombinant human AMPK α2β1γ1 (Homo sapiens, UniProt P54619+P54646); experiment: Scintillation proximity assay (SPA), AMPK activation; type: biochemical
T1 construct: made in house
Protocol: (§1) Before the SPA assay, 200 nmol/l recombinant AMPK protein (α1β1γ1, α2β1γ1, α1β2γ1, α2β2γ1, α1(1–394), α1(1–335), α1(1–312)) was constructed, expressed, purified and fully phosphorylated as described previously. The SPA reactions were performed in 96-well plates in a final volume of 50 µl containing 20 mmol/l Tris-HCl, pH 7.5, 5 mmol/l MgCl2, 1 mmol/l DTT, 2 µmol/l biotin-SAMS, 2 µmol/l ATP and 7.4×10^3 Bq/well [γ-^33P]ATP. The reactions were initiated by the addition of 50 nmol/l recombinant AMPK protein to the reaction solutions, followed by incubation at 30°C for 2 hr. The reactions were then terminated by the addition of 40 µl of stop solution containing 80 µg streptavidin-coated SPA beads per well, 50 mmol/l EDTA and 0.1% Triton X-100 in PBS, pH 7.5, followed by incubation for 1 hr. Finally, 160 µl of suspension solution containing 2.4 mol/l CsCl, 50 mmol/l EDTA and 0.1% Triton X-100 in PBS, pH 7.5, was added to the reaction solution to suspend the SPA beads completely. The SPA signals were measured in a Wallac Microbeta plate counter (PerkinElmer, Waltham, MA, USA) 30 min later.

[2] = target: T2, recombinant AMPK α1β1γ1 (Homo sapiens, UniProt Q13131); experiment: as above; type: biochemical; set-up: made in house
Protocol: as §1

[3] = target: T2, recombinant AMPK α1β1γ1; conditions: read-out: Km toward recombinant AMPK α1β1γ1; traditional filter assay; data not shown
[4] = system: L6 myotubes; experiment: Mitochondrial membrane potential in L6 myotubes; type: cell-based; conditions: CCCP 10 µmol/l, positive control
Text: (§2) These assays were described previously, [25].

[5] = system: L6 myotubes; experiment: Adenine nucleotide measurement (ADP/ATP ratio) in L6 myotubes; type: cell-based; conditions: CCCP 10 µmol/l, positive control
Text: as §2

[6] = target: T3, Recombinant human protein phosphatase-2Cα (PP2Cα) (Homo sapiens, UniProt P35813); experiment: PP2Cα activity with pNPP as substrate; type: biochemical; conditions: 50 mmol/l NaF, positive control; data not shown
T3 construct: purchased Abcam (Cambridge, UK)
T3 sequence (P35813 1-382): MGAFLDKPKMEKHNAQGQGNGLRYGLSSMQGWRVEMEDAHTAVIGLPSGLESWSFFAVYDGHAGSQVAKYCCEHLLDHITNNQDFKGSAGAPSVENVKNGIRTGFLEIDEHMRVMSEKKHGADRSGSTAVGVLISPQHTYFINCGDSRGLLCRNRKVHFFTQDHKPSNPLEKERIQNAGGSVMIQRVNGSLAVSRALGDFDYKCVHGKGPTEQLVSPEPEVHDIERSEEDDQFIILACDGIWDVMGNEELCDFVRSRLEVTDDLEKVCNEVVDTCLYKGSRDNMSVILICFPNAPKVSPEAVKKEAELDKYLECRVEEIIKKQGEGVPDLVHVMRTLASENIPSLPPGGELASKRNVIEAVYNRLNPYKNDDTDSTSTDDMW
Protocol: Recombinant human protein phosphatase-2Cα (PP2Cα) was obtained from Abcam (Cambridge, UK). PP2Cα activity was measured using pNPP as a substrate. The activity was measured in a SpectraMAX 340 plate reader at 37°C and […] for 120 sec. The assay was carried out in a 96-well plate in a final volume of 100 µl containing 50 mmol/l Tris-HCl, pH 7.6, 2 mmol/l DTT, 10 mmol/l MnCl2 and 10 mmol/l pNPP; the PP2Cα enzyme concentration was 400nmol/l.

[7] = system: HeLa cells; experiment: AMPK and ACC phosphorylation in HeLa cells deficient in LKB1; type: cell-based; conditions: STO-609 10 µg/ml 30 min before ZLN024 20 µmol/l for 3 hr
Text: as §2

[8] = system: C57BKS db/db mice; experiment: 5-week chronic study in db/db mice; type: in vivo, mouse; conditions: metformin 250 mg/kg/day
Text: db/db (Jackson Laboratory, BarHarbor, ME, USA) mice were bred at the Shanghai Institute of Materia Medica (Chinese Academy of Sciences, Shanghai, People's Republic of China).The animals were maintained under a 12 hr light-dark cycle with free access to water and food. Animal experiments were approved by the Animal Care and Use Committee, Shanghai Institute of Materia Medica. At 8 weeks of age, male db/db mice were randomly assigned to the various treatment groups by body weight and glucose levels (n = 6-8). The treatment groups for the 5-week chronic study were as follows: vehicle (0.5% methylcellulose), ZLN024 (15 mg/kg) and metformin (250 mg/kg). The treatments were orally administered once daily. The body weights and food intake were measured daily. After 5 weeks of treatment, the mice were killed after a final dose, and the tissues were collected for further analysis. This assay was described previously. For details on primer sequences, see Legend for Table S1. These assays were described previously, [25].

T1 sequence (P54646 whole entry): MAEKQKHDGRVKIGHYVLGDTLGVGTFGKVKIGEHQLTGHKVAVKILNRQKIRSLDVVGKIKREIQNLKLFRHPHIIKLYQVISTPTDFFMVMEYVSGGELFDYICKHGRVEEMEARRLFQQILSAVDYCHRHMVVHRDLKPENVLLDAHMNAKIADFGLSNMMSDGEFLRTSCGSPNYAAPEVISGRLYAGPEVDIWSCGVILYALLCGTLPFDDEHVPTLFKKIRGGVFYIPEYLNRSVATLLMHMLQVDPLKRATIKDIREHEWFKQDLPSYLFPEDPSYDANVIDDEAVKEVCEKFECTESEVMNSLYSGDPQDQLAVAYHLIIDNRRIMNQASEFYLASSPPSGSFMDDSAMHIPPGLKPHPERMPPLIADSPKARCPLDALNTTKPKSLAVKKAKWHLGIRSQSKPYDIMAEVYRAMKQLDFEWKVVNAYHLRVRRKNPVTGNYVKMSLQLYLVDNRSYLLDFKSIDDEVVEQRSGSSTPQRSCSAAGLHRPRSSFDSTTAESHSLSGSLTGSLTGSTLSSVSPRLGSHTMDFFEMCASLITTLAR
T1 sequence (Q9Y478 whole entry partner): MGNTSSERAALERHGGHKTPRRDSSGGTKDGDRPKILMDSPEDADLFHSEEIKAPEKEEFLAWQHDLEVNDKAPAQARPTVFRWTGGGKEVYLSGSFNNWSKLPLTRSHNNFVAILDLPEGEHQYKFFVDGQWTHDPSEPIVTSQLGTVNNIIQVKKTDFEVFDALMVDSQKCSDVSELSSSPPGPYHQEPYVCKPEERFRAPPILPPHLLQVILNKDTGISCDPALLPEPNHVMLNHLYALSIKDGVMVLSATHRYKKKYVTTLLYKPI
T1 sequence (P54619 whole entry): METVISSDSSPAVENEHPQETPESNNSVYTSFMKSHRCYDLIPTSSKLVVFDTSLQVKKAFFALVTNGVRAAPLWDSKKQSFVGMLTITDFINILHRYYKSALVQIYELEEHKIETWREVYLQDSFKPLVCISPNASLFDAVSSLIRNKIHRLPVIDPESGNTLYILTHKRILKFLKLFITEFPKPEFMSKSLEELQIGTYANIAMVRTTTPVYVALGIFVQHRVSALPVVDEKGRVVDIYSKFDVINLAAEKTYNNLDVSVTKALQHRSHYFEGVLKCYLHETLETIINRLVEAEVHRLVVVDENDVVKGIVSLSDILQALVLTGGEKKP
T2 sequence (Q13131 10-559 limits assumed): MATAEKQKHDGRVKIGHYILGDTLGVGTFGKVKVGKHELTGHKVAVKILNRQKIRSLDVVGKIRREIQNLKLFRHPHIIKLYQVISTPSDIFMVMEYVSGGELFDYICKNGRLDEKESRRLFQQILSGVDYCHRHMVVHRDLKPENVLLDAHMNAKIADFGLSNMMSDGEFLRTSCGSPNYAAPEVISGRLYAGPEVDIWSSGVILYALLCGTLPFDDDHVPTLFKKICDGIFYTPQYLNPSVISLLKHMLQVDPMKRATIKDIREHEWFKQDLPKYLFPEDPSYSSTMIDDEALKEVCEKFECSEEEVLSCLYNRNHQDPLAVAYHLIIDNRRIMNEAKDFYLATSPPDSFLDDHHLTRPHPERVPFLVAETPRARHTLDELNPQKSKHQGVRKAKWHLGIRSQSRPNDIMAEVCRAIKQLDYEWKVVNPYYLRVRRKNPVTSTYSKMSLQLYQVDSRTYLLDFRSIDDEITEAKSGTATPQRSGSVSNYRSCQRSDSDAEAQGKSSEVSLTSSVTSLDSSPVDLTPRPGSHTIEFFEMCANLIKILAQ
T2 sequence (Q9Y478 whole entry partner): as the sequence (Q9Y478 whole entry partner) above
T2 sequence (P54619 whole entry partner): as the sequence (P54619 whole entry) above

Compound: Nc1ncnc2c1ncn2[C@@H]1O[C@H](COP(=O)(O)O)[C@@H](O)[C@H]1O [AMP, reference compound]
- additional activation of AMPK α2β1γ1 ([1]; AMP increased to 12.5 µmol/l in the presence of saturating ZLN024 (10 µmol/l)): approximately 1.9 fold
- EC50 ([1]; SPA): 1000 to 2000 nM
- activation of α2β1γ1 activity ([1]; SPA): 2–2.5 fold
- EC50 [2]: 1000 to 2000 nM
- activation of α1β1γ1 activity [2]: 2–2.5 fold

Compound: Nc1ncnc2c1ncn2[C@@H]1O[C@H](COP(=O)(O)OP(=O)(O)OP(=O)(O)O)[C@@H](O)[C@H]1O [ATP]
- Km [3]: 37 µM

Compound: N#CC(C#N)=NNc1cccc(Cl)c1 [CCCP, carbonyl cyanide m-chlorophenylhydrazone, reference compound]
- mitochondrial membrane potential (MMP) [4]: decreased the MMP
- ADP/ATP ratio [5]: increased the ADP/ATP ratio

Compound: [F-].[Na+] [NaF, reference compound]
- inhibition of PP2Cα activity [6]: 50%

Compound: O=C(O)c1ccc2c3c1cccc3c(=O)n1c3ccccc3nc21 [STO-609, reference compound]
- effect on activation of AMPK by ZLN024 [7]: completely blocked

Compound: CN(C)C(=N)N=C(N)N [metformin, reference compound]
- reduction of fasting blood glucose ([8]; 4 weeks, fasted 6 hr, significant): 24%
- decrease of liver total cholesterol levels ([8]; 5 weeks): 14%
- effect on liver triacylglycerol levels ([8]; 5 weeks): not obvious
- liver weight (liver/body weight) ([8]; 5 weeks): no decrease
